# Where a SMILES comes first, the peptide text is derived from it. The star is where a group is joined. Octyl = CCCCCCCC*
# Target: T1, human ghrelin receptor (GHSR1a) (Homo sapiens, UniProt Q92847)
# T1 construct: expressed in transfected cells; plasmid pIRESneo2dNGFR
# Assay: Ghrelin receptor functional assay (Ca2+ induction, Fluo-4, FLIPR) in HEK293 cells stably expressing the human ghrelin receptor
# Type: cell-based
# Conditions: HEK293 cell line stably expressing human GHSR1a
# Text: To test activation of the ghrelin receptor, stable cell lines expressing the human ghrelin receptor were produced. In brief, HEK293 cells were used for transfection of the cDNA for human ghrelin receptor cloned into the transfection plasmid pIRESneo2dNGFR. […] The DNA encoding the ghrelin receptor was amplified by PCR using primers also encoding terminal restriction sites for subcloning. The ghrelin receptor was subcloned into a mammalian expression vector containing a neomycin (G418) resistance marker. The fidelity of the DNA encoding the receptor was confirmed by DNA sequencing. HEK293 cells were used for transfection of the ghrelin receptor expression plasmid. The cells were grown according to standard protocol in growth medium and transfected with the plasmids using Lipofectamin (Invitrogen) according to the manufacturer's protocol. […]
# The plate with test compounds was pre-warmed before starting the measurements. […] The program measures basal level of fluorescence of Fluo-4 for 10 seconds, adds 100 μl of peptide solution to the cells and measures the change in fluorescence as a consequence of the changes in Ca^2+ concentration in the cells. The output used for calculation of activity was selected to be the maximal response (expressed as a ratio to the basal level. EC50 values) and maximal response values were determined based on these values.
# T1 sequence (Q92847 whole entry): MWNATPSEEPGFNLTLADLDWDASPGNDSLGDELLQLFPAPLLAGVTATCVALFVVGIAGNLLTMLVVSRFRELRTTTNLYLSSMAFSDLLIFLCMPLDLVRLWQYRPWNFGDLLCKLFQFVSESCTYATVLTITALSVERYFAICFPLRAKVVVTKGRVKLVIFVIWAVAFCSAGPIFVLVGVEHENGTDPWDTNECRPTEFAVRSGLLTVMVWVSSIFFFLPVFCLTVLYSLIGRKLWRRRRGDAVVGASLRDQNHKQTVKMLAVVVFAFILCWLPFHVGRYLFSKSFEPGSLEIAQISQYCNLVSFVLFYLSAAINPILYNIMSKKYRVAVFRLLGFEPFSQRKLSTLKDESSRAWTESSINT
row,EC50,SMILES
1,> 1000 nM,"CC(C)C[C@H](NC(=O)[C@H](CCCCN)NC(=O)[C@H](C)NC(=O)[C@@H]1CCCN1C(=O)[C@@H]1CCCN1C(=O)[C@H](CCCCN)NC(=O)[C@H](CCCCN)NC(=O)[C@H](CO)NC(=O)[C@H](CCC(=O)O)NC(=O)[C@H](CCCCN)NC(=O)[C@H](CCCNC(=N)N)NC(=O)[C@H](CCC(N)=O)NC(=O)[C@H](CCC(N)=O)NC(=O)[C@H](C)NC(=O)[C@H](CCCCN)NC(=O)[C@H](CCC(N)=O)NC(=O)[C@H](Cc1c[nH]cn1)NC(=O)[C@H](CCC(=O)O)NC(=O)[C@@H]1CCCN1C(=O)[C@H](CO)NC(=O)[C@H](CC(C)C)NC(=O)[C@H](Cc1ccccc1)NC(=O)[C@H](CO)NC(=O)[C@H](CO)NC(=O)CN)C(=O)N[C@@H](CCC(N)=O)C(=O)N1CCC[C@H]1C(=O)N[C@@H](CCCNC(=N)N)C(=O)O [Compound 4, reference compound]"
2,0.33 nM,CCCCCCCCOC[C@H](NC(=O)[C@H](CO)NC(=O)[C@@H]1CCCN1)C(=O)N[C@@H](Cc1ccccc1)C(=O)N[C@@H](CC(C)C)C(=O)N[C@@H](CO)C(=O)N1CCC[C@H]1C(=O)N[C@@H](CCC(=O)O)C(=O)N[C@@H](Cc1c[nH]cn1)C(=O)N[C@@H](CCC(N)=O)C(=O)N[C@@H](CCCNC(=N)N)C(=O)N[C@H](C(=O)N[C@@H](CCC(N)=O)C(=O)N[C@@H](CCCNC(=N)N)C(=O)N[C@@H](CCCCN)C(=O)N[C@@H](CCC(=O)O)C(=O)N[C@@H](CO)C(=O)N[C@@H](CCCCN)C(=O)N[C@@H](CCCCN)C(=O)N1CCC[C@H]1C(=O)N1CCC[C@H]1C(=O)N[C@@H](C)C(=O)N[C@@H](CCCCN)C(=O)N[C@@H](CC(C)C)C(=O)N[C@@H](CCC(N)=O)C(=O)N1CCC[C@H]1C(=O)N[C@@H](CCCNC(=N)N)C(N)=O)C(C)C [Compound 38] (H-PSS(Octyl)FLSPEHQRVQRKESKKPPAKLQPR-NH2)
